Here are results for 8 compounds from PubChem BioAssay AID1259407 (Chemical Carcinogenesis Research Information System (CCRIS), 2018).

The test system of this series is CCRIS mutagenicity, Ames/micronucleus/aberration tests. As to the kind of experiment: CCRIS mutagenicity studies.
[1] abbreviates: Test System: AMES SALMONELLA TYPHIMURIUM, Strain/Indicator: TA98, Metabolic Activation: NONE, Method: PREINCUBATION
[2] abbreviates: Test System: AMES SALMONELLA TYPHIMURIUM, Strain/Indicator: TA98, Metabolic Activation: RAT, LIVER, S-9, AROCLOR 1254, Method: PREINCUBATION
The mark [3] stands for this setting: Test System: AMES SALMONELLA TYPHIMURIUM, Strain/Indicator: TA100, Metabolic Activation: NONE, Method: PREINCUBATION
[4] abbreviates: Test System: AMES SALMONELLA TYPHIMURIUM, Strain/Indicator: TA100, Metabolic Activation: RAT, LIVER, S-9, AROCLOR 1254, Method: PREINCUBATION
[5] abbreviates: Test System: AMES SALMONELLA TYPHIMURIUM, Strain/Indicator: TA98, Metabolic Activation: NONE, Method: STANDARD PLATE.
[6] abbreviates: Test System: AMES SALMONELLA TYPHIMURIUM, Strain/Indicator: TA100, Metabolic Activation: NONE, Method: STANDARD PLATE.
[7] abbreviates: Test System: AMES SALMONELLA TYPHIMURIUM, Strain/Indicator: TA98, Metabolic Activation: RAT, LIVER, S-9, AROCLOR 1254, Method: STANDARD PLATE.
Setting [8] is: Test System: AMES SALMONELLA TYPHIMURIUM, Strain/Indicator: TA100, Metabolic Activation: RAT, LIVER, S-9, AROCLOR 1254, Method: STANDARD PLATE.
Where [9] appears, read: Test System: AMES SALMONELLA TYPHIMURIUM, Strain/Indicator: TA1535, Metabolic Activation: NONE, Method: STANDARD PLATE.
Setting [10] is: Test System: AMES SALMONELLA TYPHIMURIUM, Strain/Indicator: TA1535, Metabolic Activation: RAT, LIVER, S-9, AROCLOR 1254, Method: STANDARD PLATE.
[11] abbreviates: Test System: AMES SALMONELLA TYPHIMURIUM, Strain/Indicator: TA1537, Metabolic Activation: NONE, Method: STANDARD PLATE.
[12] abbreviates: Test System: AMES SALMONELLA TYPHIMURIUM, Strain/Indicator: TA1537, Metabolic Activation: RAT, LIVER, S-9, AROCLOR 1254, Method: STANDARD PLATE.
Setting [13] is: Test System: AMES SALMONELLA TYPHIMURIUM, Strain/Indicator: TA1538, Metabolic Activation: NONE, Method: STANDARD PLATE.
Setting [14] is: Test System: AMES SALMONELLA TYPHIMURIUM, Strain/Indicator: TA1538, Metabolic Activation: RAT, LIVER, S-9, AROCLOR 1254, Method: STANDARD PLATE.

Structures are written as SMILES. Active and inactive are the calls of the source. No rule for the calls is given here.

Take `CC(=O)Oc1cc([N+](=O)[O-])c2ccc3cccc4ccc1c2c43`: the mutagenic call was “active; positive” (Test System: AMES SALMONELLA TYPHIMURIUM, Strain/Indicator: TA98(1,8-DNP6), Metabolic Activation: NONE, Method: PREINCUBATION); “active; positive” (Test System: AMES SALMONELLA TYPHIMURIUM, Strain/Indicator: TA98(NR), Metabolic Activation: NONE, Method: PREINCUBATION); “active; positive” under setting [1]; “inactive; negative” under setting [2]; “active; positive” under setting [3]; “active; positive” under setting [4].
Turning to `CCOP(=S)(OCC)SCCl`, the mutagenic call is “inactive; negative” (Test System: AMES SALMONELLA TYPHIMURIUM, Strain/Indicator: TA98, Metabolic Activation: NONE); “inactive; negative” under setting [5]; “inactive; negative” (Test System: AMES SALMONELLA TYPHIMURIUM, Strain/Indicator: TA98, Metabolic Activation: RAT, LIVER, S-9, SODIUM PHENOBARBITAL, Method: STANDARD PLATE); “inactive; negative” (Test System: AMES SALMONELLA TYPHIMURIUM, Strain/Indicator: TA98, Metabolic Activation: S-9); “inactive; negative” (Test System: AMES SALMONELLA TYPHIMURIUM, Strain/Indicator: TA100, Metabolic Activation: NONE); “inactive; negative” under setting [6]. Further, the mutagenic call by setting is: (Test System: AMES SALMONELLA TYPHIMURIUM, Strain/Indicator: TA100, Metabolic Activation: RAT, LIVER, S-9, SODIUM PHENOBARBITAL, Method: STANDARD PLATE) “inactive; negative”; (Test System: AMES SALMONELLA TYPHIMURIUM, Strain/Indicator: TA100, Metabolic Activation: S-9) “inactive; negative”; (Test System: E. COLI, Strain/Indicator: WP2, Metabolic Activation: NONE) “inactive; negative”; (Test System: E. COLI, Strain/Indicator: WP2, Metabolic Activation: RAT, LIVER, S-9, SODIUM PHENOBARBITAL, Method: STANDARD PLATE) “inactive; negative”; (Test System: E. COLI, Strain/Indicator: WP2, Metabolic Activation: S-9) “inactive; negative”; (Test System: E. COLI, Strain/Indicator: WP2 UVRA, Metabolic Activation: NONE) “inactive; negative”. Besides, the mutagenic call (Test System: E. COLI, Strain/Indicator: WP2 UVRA, Metabolic Activation: RAT, LIVER, S-9, SODIUM PHENOBARBITAL, Method: STANDARD PLATE) was “inactive; negative” and the mutagenic call (Test System: E. COLI, Strain/Indicator: WP2 UVRA, Metabolic Activation: S-9) is “inactive; negative”.
`c1ccc2c(c1)CCCC2`: the mutagenic call is “inactive; negative” (Test System: AMES SALMONELLA TYPHIMURIUM, Strain/Indicator: TA98, Metabolic Activation: HAMSTER, LIVER, S-9, AROCLOR 1254, Method: STANDARD PLATE); “inactive; negative” under setting [5]; “inactive; negative” under setting [7]; “inactive; negative” (Test System: AMES SALMONELLA TYPHIMURIUM, Strain/Indicator: TA100, Metabolic Activation: HAMSTER, LIVER, S-9, AROCLOR 1254, Method: STANDARD PLATE); “inactive; negative” under setting [6]; “inactive; negative” under setting [8]. For the same compound, the mutagenic call runs as follows: (Test System: AMES SALMONELLA TYPHIMURIUM, Strain/Indicator: TA1535, Metabolic Activation: HAMSTER, LIVER, S-9, AROCLOR 1254, Method: STANDARD PLATE) “inactive; negative”; under setting [9], “inactive; negative”; under setting [10], “inactive; negative”; (Test System: AMES SALMONELLA TYPHIMURIUM, Strain/Indicator: TA1537, Metabolic Activation: HAMSTER, LIVER, S-9, AROCLOR 1254, Method: STANDARD PLATE) “inactive; negative”; under setting [11], “inactive; negative”; under setting [12], “inactive; negative”. Also, the mutagenic call by setting is: (Test System: AMES SALMONELLA TYPHIMURIUM, Strain/Indicator: TA1538, Metabolic Activation: HAMSTER, LIVER, S-9, AROCLOR 1254, Method: STANDARD PLATE) “inactive; negative”; under setting [13], “inactive; negative”; under setting [14], “inactive; negative”; (Test System: MOUSE LYMPHOMA, Strain/Indicator: L5178Y (TK+/TK-), Metabolic Activation: RAT, LIVER, S-9, AROCLOR 1254, Method: SUSPENSION/PLATE) “active; positive. reevaluation of results: equivocal”.
As for `O=c1c2cc(O)ccc2oc2cc(O)cc(O)c12`, the mutagenic call was “active; positive” (Test System: AMES SALMONELLA TYPHIMURIUM, Strain/Indicator: TA97, Metabolic Activation: RAT, LIVER, S-9, PHENOBARBITAL AND 5,6-BENZOFLAVONE, Method: PREINCUBATION); “inactive; negative” (Test System: AMES SALMONELLA TYPHIMURIUM, Strain/Indicator: TA98, Metabolic Activation: RAT, LIVER, S-9, PHENOBARBITAL AND 5,6-BENZOFLAVONE, Method: PREINCUBATION); “active; positive” (Test System: AMES SALMONELLA TYPHIMURIUM, Strain/Indicator: TA100, Metabolic Activation: RAT, LIVER, S-9, PHENOBARBITAL AND 5,6-BENZOFLAVONE, Method: PREINCUBATION); “active; positive” (Test System: AMES SALMONELLA TYPHIMURIUM, Strain/Indicator: TA2637, Metabolic Activation: RAT, LIVER, S-9, PHENOBARBITAL AND 5,6-BENZOFLAVONE, Method: PREINCUBATION).
Regarding `O=[N+]([O-])c1cccc2c1-c1cccc3cccc-2c13`, under setting [5], the mutagenic call was “active; positive”.
For the compound `Cc1cnc(C)cn1`, the mutagenic call is “inactive; negative” under setting [1]; “inactive; negative” under setting [2]; “inactive; negative” under setting [3]; “inactive; negative” under setting [4]; “inactive; negative” (Test System: AMES SALMONELLA TYPHIMURIUM, Strain/Indicator: TA102, Metabolic Activation: NONE, Method: PREINCUBATION); “inactive; negative” (Test System: AMES SALMONELLA TYPHIMURIUM, Strain/Indicator: TA102, Metabolic Activation: RAT, LIVER, S-9, AROCLOR 1254, Method: PREINCUBATION).
Take `COc1cc(S(=O)(=O)O)c(C)cc1N=Nc1c(O)ccc2cc(S(=O)(=O)O)ccc12`: the mutagenic call under setting [1] is “inactive; negative”; the mutagenic call under setting [5] is “inactive; negative”; the mutagenic call (Test System: AMES SALMONELLA TYPHIMURIUM, Strain/Indicator: TA98, Metabolic Activation: RAT LIVER S-9, AROCLOR 1254, Method: STANDARD PLATE) was “inactive; negative”; the mutagenic call (Test System: AMES SALMONELLA TYPHIMURIUM, Strain/Indicator: TA98, Metabolic Activation: S-9, Method: PREINCUBATION) was “inactive; negative”; the mutagenic call under setting [3] was “inactive; negative”; the mutagenic call under setting [6] was “inactive; negative”. Moreover, the mutagenic call runs as follows: (Test System: AMES SALMONELLA TYPHIMURIUM, Strain/Indicator: TA100, Metabolic Activation: RAT LIVER S-9, AROCLOR 1254, Method: STANDARD PLATE) “inactive; negative”; (Test System: AMES SALMONELLA TYPHIMURIUM, Strain/Indicator: TA100, Metabolic Activation: S-9, Method: PREINCUBATION) “inactive; negative”.
In the case of `CN(C)c1ccc(N=Nc2cccnc2)cc1`, the mutagenic call was “inactive; negative” under setting [5]; “inactive; negative” under setting [7]; “inactive; negative” under setting [6]; “inactive; negative” under setting [8]; “inactive; negative” under setting [9]; “inactive; negative” under setting [10]. Also, the mutagenic call by setting is: under setting [11], “inactive; negative”; under setting [12], “inactive; negative”; under setting [13], “inactive; negative”; under setting [14], “inactive; negative”.
